Source: patent US20230310386A1, “INJECTABLE PHARMACEUTICAL COMPOSITIONS AND USES THEREOF” (Intervet Inc., priority 2020, published 2023)
Where “and” joins values, the source holds several entries; their conditions need not be identical. Identical values can stand only once.

Assay: Dose accuracy study of the reconstituted composition comprising moxidectin and fluralaner
Type: physicochemical
Conditions: reconstituted composition of Example 9, 1 mL doses #1-6
Experimental: The vial comprising moxidectin microspheres from Example 3 and fluralaner particles from Example 7 were reconstituted with 17 mL of the aqueous carrier of Example 6. During reconstitution the vial containing the moxidectin microspheres and fluralaner particles was rotated while being held horizontally throughout carrier addition.
Once all the carrier was added, the vial was shaken for 1 minute.
Herein, the vial with the reconstituted composition as described above was manipulated in one of the following ways: • vigorously hand shaken for 1, 2 or 3 minutes prior to sampling; • vigorously hand shaken for 3 minutes and mixed using the syringe 5 times prior to sampling; or • vigorously hand shaken for 3 minutes, mixed using the syringe 5 times and vortexed for […] prior to sampling.
After the solid material was completely suspended, six 1 mL doses were sampled from the vial. Prior to each dose, the vial was vigorously shaken for 15 seconds to avoid settling between samples.
Each of the six doses were transferred to a separate 50 mL volumetric flask along with 10 mL of water: then the samples were diluted to volume with 50/50 acetonitrile/isopropanol and sonicated for 20 minutes.
These samples were analysed to determine the moxidectin concentration.
Additionally, 1 mL of the samples were transferred into separate 25 mL volumetric flasks and diluted with 40/40/20 acetonitrile/isopropanol/water. The fluralaner concentrations were determined from these diluted samples.

Cc1cc(C2=NOC(c3cc(Cl)cc(Cl)c3)(C(F)(F)F)C2)ccc1C(=O)NCC(=O)NCC(F)(F)F (centres unmarked) [Fluralaner, 4-[5-(3,5-dichlorophenyl)-5-trifluoromethyl-4,5-dihydroisoxazol-3-yl]-2-methyl-N-[(2,2,2-trifluoro-ethylcarbamoyl)-methyl]-benzamide]
Fluralaner Percent Label Claim (hand shaken for 1 minute): 104.38 Percent Label Claim and 90.80 Percent Label Claim and 102.68 Percent Label Claim and 101.83 Percent Label Claim and 106.97 Percent Label Claim and 103.52 Percent Label Claim | Fluralaner Percent Label Claim (hand shaken for 2 minutes): 80.44 Percent Label Claim and 103.67 Percent Label Claim and 102.82 Percent Label Claim and 84.95 Percent Label Claim and 99.01 Percent Label Claim and 107.40 Percent Label Claim | Fluralaner Percent Label Claim (hand shaken for 3 minutes): 95.36 Percent Label Claim and 102.59 Percent Label Claim and 95.41 Percent Label Claim and 99.43 Percent Label Claim and 108.06 Percent Label Claim and 88.68 Percent Label Claim | Fluralaner Percent Label Claim (hand shaken for 3 minutes and mixed using a syringe): 105.95 Percent Label Claim and 104.31 Percent Label Claim and 89.74 Percent Label Claim and 105.87 Percent Label Claim and 104.26 Percent Label Claim and 103.83 Percent Label Claim | Fluralaner Percent Label Claim (hand shaken for 3 minutes, mixed using a syringe, and vortexed): 100.86 Percent Label Claim and 106.80 Percent Label Claim and 105.14 Percent Label Claim and 105.86 Percent Label Claim and 106.37 Percent Label Claim and 104.61 Percent Label Claim
